From patent US20250250227A1, “AMINO LIPID COMPOUND, PREPARATION METHOD THEREFOR, COMPOSITION THEREOF AND USE THEREOF” (SHENZHEN SHENXIN BIOTECHNOLOGY CO., LTD., priority 2022, published 2025) come the findings set out here.

Series [1] relates to Female BALB/c mice. Briefly: Performance evaluation of in vivo delivery of Fluc mRNA lipid nanoparticle (IVIS, body and organs). The settings on record: Fluc mRNA LNP; for Liver (fluorescence expression intensity) / Spleen (fluorescence expression intensity): 75 μL IV; for Liver (fluorescence expression intensity) / Spleen (fluorescence expression intensity) / Total flux (fluorescence expression intensity) / (Spleen/Total Flux) * 100%: 6 hours after injection; for Liver (fluorescence expression intensity) / Spleen (fluorescence expression intensity) / Total flux (fluorescence expression intensity): IVIS; for Total flux (fluorescence expression intensity): 75 μL tail vein injection (IV); for (Spleen/Total Flux) * 100% / Multiple of spleen delivery/total delivery to amino lipid compound 118: IV; for Multiple of spleen delivery/total delivery to amino lipid compound 118: relative to amino lipid compound 118. The procedure: Animal preparation: Female BALB/c mice of 6-8 weeks old were selected and raised in an SPF grade breeding room. Animal testing was conducted in strict accordance with the guidelines of national health institutions and animal ethics requirements.
In vivo Delivery: prior to injection of the test LNP formulations, the LNP formulations were gently and repeatedly inverted to thoroughly mix the formulation samples. A corresponding amount of the formulation samples were aspirated with a 1 ml insulin syringe, and the LNP formulations were injected by tail vein injection (IV), with 3 mice in duplicate per formulation. Each mouse was injected with 75 μL of the luciferase mRNA (Fluc mRNA)-encapsulating lipid nanoparticle formulation prepared in Experimental Example 1.
6 hours after injection of LNP formulations, mice were injected with 200 μL D-Luciferin luciferase developing substrate (Catalog No. 122799; Manufacturer: Perkin Elmer). After the substrate was injected, the mice were anesthetized with isoflurane inhalation, and the injection time of luciferase developing substrate was recorded.
The encapsulation efficiency of the lipid nanoparticle encapsulating luciferase mRNA (Fluc mRNA) with a representative amino lipid compound and the fluorescence expression intensity induced by the same are shown in Table 4, with the amino lipid compound 118 as a control.
The multiple of spleen delivery/total delivery of fluorescence expression intensity induced by lipid nanoparticle encapsulating luciferase mRNA (Fluc mRNA) with a representative amino lipid compound to amino lipid compound 118 is shown in Table 5.

Series [2] can be described thus: Preparation and characterisation of mRNA-encapsulating lipid nanoparticle (encapsulation efficiency, particle size). In kind it is physicochemical. As to conditions: LNP encapsulating Fluc mRNA; Lipid:DSPC:CHO-HP:M-DMG-2000 48:10:40.5:1.5. As for the experimental part: A specified amount of Fluc mRNA stock solution, 0.2 M sodium acetate buffer, and DEPC water were added to a container, and mixed well to obtain a water phase;
The amino lipid compound of the present disclosure, a helper lipid, a structural lipid, and a PEG-lipid were separately dissolved in absolute ethanol to prepare respective solutions at concentrations of 20 mg/mL, 10 mg/mL, 20 mg/mL, and 25 mg/mL, respectively. The above four solutions were pipetted at a molar ratio of Lipid:DSPC:CHO—HP:M-DMG-2000 of 48:10:40.5:1.5, and mixed well to prepare an alcohol phase. • (2) Encapsulation: The water phase and the alcohol phase were injected into a microfluidic chip at a flow rate of water phase: alcohol phase=12 mL/min: 4 mL/min by using a microfluidic preparation instrument (MPE-L2), and encapsulation was carried out at a flow rate of water phase: alcohol phase=9 mL/min: 3 mL/min to obtain mRNA-encapsulating lipid nanoparticle (mRNA-LNP). • (3) Dialysis: The product of step (2) was loaded in a dialysis bag and placed in a Tris Buffer-8% sucrose solution for replacement to remove ingredients such as residual ethanol, unassembled lipids. Dialysis was conducted for 2 h with magnetic stirring at room temperature and under protection from light (dialysate was replaced every 1 hour). • (4) The product of step (3) was sterilized by passing through a […] microporous membrane, and then packaged.
Lipid nanoparticle formulations encapsulating Fluc mRNA were prepared, with a concentration of Fluc mRNA of 0.2 g/L, a mass ratio of Fluc mRNA to Lipid of 1:10, a particle size of 80-130 nm, and a encapsulation efficiency of 85% or higher.
The encapsulation efficiency of the lipid nanoparticle encapsulating luciferase mRNA (Fluc mRNA) with a representative amino lipid compound and the fluorescence expression intensity induced by the same are shown in Table 4, with the amino lipid compound 118 as a control. […]

Take `CCCCCCC(CCCCCC)OC(=O)CCCCCCCCC(CCCCCCCCC(=O)OC(CCCCCC)CCCCCC)OC(=O)N(CCCCC)CCCN(C)C` [Compound 108]: in series [1], the “Liver (fluorescence expression intensity)” value is recorded as 6.84E+07, the “Spleen (fluorescence expression intensity)” value worked out at 1.02E+06, the “Total flux (fluorescence expression intensity)” value amounted to 3.40E+08 and the “(Spleen/Total Flux) * 100%” value was found to be 0.30%. Besides, the “Multiple of spleen delivery/total delivery to amino lipid compound 118” value in series [1] turned out to be 0.88. The same compound gave an Encapsulation efficiency in series [2] of 91.78%.
For `CCCCCCC(CCCCCC)OC(=O)CCCCCCCCC(CCCCCCCCC(=O)OC(CCCCCC)CCCCCC)OC(=O)N(CCCCCC)CCCN(C)C` [Compound 109], in series [1], the “Liver (fluorescence expression intensity)” value was determined as 5.22E+07, the “Spleen (fluorescence expression intensity)” value is reported as 8.53E+05, the “Total flux (fluorescence expression intensity)” value is on record as 2.80E+08 and the “(Spleen/Total Flux) * 100%” value is recorded as 0.30%. Moreover, the “Multiple of spleen delivery/total delivery to amino lipid compound 118” value in series [1] worked out at 0.90. For the same compound, the Encapsulation efficiency in series [2] was determined as 92.87%.
`CCCCCCCN(CCCN(C)C)C(=O)OC(CCCCCCCCC(=O)OC(CCCCCC)CCCCCC)CCCCCCCCC(=O)OC(CCCCCC)CCCCCC` [Compound 110]: in series [1], the “Liver (fluorescence expression intensity)” value stood at 5.83E+07, the “Spleen (fluorescence expression intensity)” value was determined as 8.71E+05, the “Total flux (fluorescence expression intensity)” value is 2.44E+08 and the “(Spleen/Total Flux) * 100%” value came to 0.36%. The “Multiple of spleen delivery/total delivery to amino lipid compound 118” value in series [1] came to 1.05. Also, in series [2], the Encapsulation efficiency is given as 90.82%.
Turning to `CCCCCCCC(=O)N(CCCN(C)C)C(CCCCCCCCC(=O)OC(CCCCCC)CCCCCC)CCCCCCCCC(=O)OC(CCCCCC)CCCCCC` [Compound 118, reference compound], in series [1], the “Liver (fluorescence expression intensity)” value is 1.88E+08, the “Spleen (fluorescence expression intensity)” value is recorded as 2.19E+06, the “Total flux (fluorescence expression intensity)” value is on record as 6.46E+08 and the “(Spleen/Total Flux) * 100%” value is reported as 0.34%. In series [1], the “Multiple of spleen delivery/total delivery to amino lipid compound 118” value is given as 1.00. The compound further returned an Encapsulation efficiency in series [2] of 90.53%.
Turning to `CC/C=C\COC(=O)CCCN(CCCN(C)C)C(=O)OC(CCCCCCCCC(=O)OC(CCCCCC)CCCCCC)CCCCCCCCC(=O)OC(CCCCCC)CCCCCC` [Compound 275], in series [1], the “Liver (fluorescence expression intensity)” value is given as 1.23E+08, the “Spleen (fluorescence expression intensity)” value worked out at 8.84E+06, the “Total flux (fluorescence expression intensity)” value was determined as 8.16E+08 and the “(Spleen/Total Flux) * 100%” value is reported as 1.08%. Moreover, the “Multiple of spleen delivery/total delivery to amino lipid compound 118” value in series [1] is reported as 3.19. For the same compound, the Encapsulation efficiency in series [2] stood at 90.61%.
Regarding `CCC/C=C\COC(=O)CCCN(CCCN(C)C)C(=O)OC(CCCCCCCCC(=O)OC(CCCCCC)CCCCCC)CCCCCCCCC(=O)OC(CCCCCC)CCCCCC` [Compound 276], in series [1], the “Liver (fluorescence expression intensity)” value turned out to be 1.43E+08, the “Spleen (fluorescence expression intensity)” value is 4.67E+06, the “Total flux (fluorescence expression intensity)” value amounted to 7.70E+08 and the “(Spleen/Total Flux) * 100%” value turned out to be 0.61%. Further, in series [1], the “Multiple of spleen delivery/total delivery to amino lipid compound 118” value came to 1.78. The compound further returned an Encapsulation efficiency in series [2] of 88.92%.
On to `CC/C=C\CCOC(=O)CCCN(CCCN(C)C)C(=O)OC(CCCCCCCCC(=O)OC(CCCCCC)CCCCCC)CCCCCCCCC(=O)OC(CCCCCC)CCCCCC` [Compound 277], for which, in series [1], the “Liver (fluorescence expression intensity)” value came to 7.98E+07, the “Spleen (fluorescence expression intensity)” value is on record as 8.42E+06, the “Total flux (fluorescence expression intensity)” value is 3.14E+08 and the “(Spleen/Total Flux) * 100%” value was found to be 2.68%. Moreover, the “Multiple of spleen delivery/total delivery to amino lipid compound 118” value in series [1] is given as 7.89. The Encapsulation efficiency in series [2] is recorded as 91.00%.
For `CCCC/C=C\CCOC(=O)CCCN(CCCN(C)C)C(=O)OC(CCCCCCCCC(=O)OC(CCCCCC)CCCCCC)CCCCCCCCC(=O)OC(CCCCCC)CCCCCC` [Compound 279], in series [1], the “Liver (fluorescence expression intensity)” value came to 9.55E+07, the “Spleen (fluorescence expression intensity)” value was 4.57E+06, the “Total flux (fluorescence expression intensity)” value was 6.29E+08 and the “(Spleen/Total Flux) * 100%” value amounted to 0.73%. Also, the “Multiple of spleen delivery/total delivery to amino lipid compound 118” value in series [1] was determined as 2.14. Further, the Encapsulation efficiency in series [2] is 92.43%.
With `CC/C=C\COC(=O)CCCCCN(CCCN(C)C)C(=O)OC(CCCCCCCCC(=O)OC(CCCCCC)CCCCCC)CCCCCCCCC(=O)OC(CCCCCC)CCCCCC` [Compound 284], in series [1], the “Liver (fluorescence expression intensity)” value is 3.29E+07, the “Spleen (fluorescence expression intensity)” value was 5.20E+06, the “Total flux (fluorescence expression intensity)” value is 3.42E+08 and the “(Spleen/Total Flux) * 100%” value worked out at 1.52%. The “Multiple of spleen delivery/total delivery to amino lipid compound 118” value in series [1] came out at 4.47. This compound also registered an Encapsulation efficiency in series [2] of 91.63%.
As to `CCCCCCC(CCCCCC)OC(=O)CCCCCCCCC(CCCCCCCCC(=O)OC(CCCCCC)CCCCCC)OC(=O)N(CCCCCC(=O)OC(C)CC)CCCN(C)C` (stereo not drawn) [Compound 298], in series [1], the “Liver (fluorescence expression intensity)” value came out at 3.32E+07, the “Spleen (fluorescence expression intensity)” value is listed as 2.13E+06, the “Total flux (fluorescence expression intensity)” value was found to be 2.61E+08 and the “(Spleen/Total Flux) * 100%” value amounted to 0.82%. Further, in series [1], the “Multiple of spleen delivery/total delivery to amino lipid compound 118” value is on record as 2.40. The Encapsulation efficiency in series [2] was determined as 92.85%.
With `CCCCCCC(CCCCCC)OC(=O)CCCCCCCCC(CCCCCCCCC(=O)OC(CCCCCC)CCCCCC)OC(=O)N(CCCCC(=O)OC(C)CCC)CCCN(C)C` (stereo not drawn) [Compound 303], in series [1], the “Liver (fluorescence expression intensity)” value worked out at 8.58E+07, the “Spleen (fluorescence expression intensity)” value was found to be 5.56E+06, the “Total flux (fluorescence expression intensity)” value is on record as 6.41E+08 and the “(Spleen/Total Flux) * 100%” value is reported as 0.87%. In addition, the “Multiple of spleen delivery/total delivery to amino lipid compound 118” value in series [1] amounted to 2.55. In series [2], this compound gave an Encapsulation efficiency of 93.23%.
For `CCCCCCC(CCCCCC)OC(=O)CCCCCCCCC(CCCCCCCCC(=O)OC(CCCCCC)CCCCCC)OC(=O)N(CCCCC(=O)OC(CC)CC)CCCN(C)C` [Compound 304], in series [1], the “Liver (fluorescence expression intensity)” value turned out to be 1.06E+08, the “Spleen (fluorescence expression intensity)” value is 1.48E+07, the “Total flux (fluorescence expression intensity)” value stood at 5.18E+08 and the “(Spleen/Total Flux) * 100%” value amounted to 2.86%. In addition, in series [1], the “Multiple of spleen delivery/total delivery to amino lipid compound 118” value turned out to be 8.40. In series [2], this compound came in with an Encapsulation efficiency of 92.03%.
Turning to `CCCCCCC(CCCCCC)OC(=O)CCCCCCCCC(CCCCCCCCC(=O)OC(CCCCCC)CCCCCC)OC(=O)N(CCCCC(=O)OC(C)CCCC)CCCN(C)C` (stereo not drawn) [Compound 305], in series [1], the “Liver (fluorescence expression intensity)” value is 9.19E+07, the “Spleen (fluorescence expression intensity)” value stood at 7.03E+06, the “Total flux (fluorescence expression intensity)” value stood at 6.71E+08 and the “(Spleen/Total Flux) * 100%” value was found to be 1.05%. The “Multiple of spleen delivery/total delivery to amino lipid compound 118” value in series [1] was determined as 3.08. The compound further returned an Encapsulation efficiency in series [2] of 90.70%.
Take `CCCCCCC(CCCCCC)OC(=O)CCCCCCCCC(CCCCCCCCC(=O)OC(CCCCCC)CCCCCC)OC(=O)N(CCCCC(=O)OC(CC)CCC)CCCN(C)C` (stereo not drawn) [Compound 306]: in series [1], the “Liver (fluorescence expression intensity)” value is on record as 4.13E+07, the “Spleen (fluorescence expression intensity)” value is recorded as 5.44E+06, the “Total flux (fluorescence expression intensity)” value stood at 2.45E+08 and the “(Spleen/Total Flux) * 100%” value was found to be 2.22%. The “Multiple of spleen delivery/total delivery to amino lipid compound 118” value in series [1] is given as 6.53. The Encapsulation efficiency in series [2] is reported as 91.92%.
On to `CCCCCCC(CCCCCC)OC(=O)CCCCCCCCC(CCCCCCCCC(=O)OC(CCCCCC)CCCCCC)OC(=O)N(CCCC(=O)OC(C)CC)CCCN(C)C` (stereo not drawn) [Compound 308], for which, in series [1], the “Liver (fluorescence expression intensity)” value was determined as 9.58E+07, the “Spleen (fluorescence expression intensity)” value is on record as 4.93E+06, the “Total flux (fluorescence expression intensity)” value was determined as 6.29E+08 and the “(Spleen/Total Flux) * 100%” value was 0.78%. The “Multiple of spleen delivery/total delivery to amino lipid compound 118” value in series [1] worked out at 2.31. Also, the Encapsulation efficiency in series [2] turned out to be 93.71%.
